What all share (assay): growth of human tumour cells (NCI), 48 h
Assay [1] deals with MALME-3M melanoma.
The subject of assay [2] is HOP-62 NSCLC.
Assay [3] deals with SNB-75 CNS.
Assay [4] has as its system HL-60(TB) leukemia.
The subject of assay [5] is DU-145 prostate.
The test system of assay [6] is KM12 colon.
In assay [7] the test system is SN12C renal.
Assay [8] has as its system ACHN renal.
In assay [9] the test system is HCT-15 colon.
The subject of assay [10] is RXF 393 renal.

Where “and” joins values, the source holds several entries; their conditions need not be identical. Equal values may be shown once.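 Five concentrations, 48 hours, 96-well plates. Here, GI50 denotes the concentration required for 50% inhibition of growth. TGI marks complete inhibition of growth.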 Where only a bound is given, the exact number is not on record here.

Consider `C=C1CC[C@@H]2[C@](C)(COC(C)=O)[C@H](OC(C)=O)CC[C@@]2(C)[C@@H]1C/C=C1/C(=O)OC[C@H]1OC(C)=O`, for which the GI50 was 2.98 µM in assay [1]; 4.4 µM in assay [2]; 2.83 µM in [3]; 2.61 µM in [4]; 4.47 µM in assay [5]; 10.5 µM in assay [6]. Also, the GI50 was 3.07 µM in assay [7], 1.71 µM in [8], 1.58 µM in assay [9] and 1.95 µM in [10]. In addition, the TGI in assay [1] stood at 7.95 µM; in [2] it was 21.4 µM; in assay [3], 14.2 µM; in assay [4] it was 6.78 µM; in assay [5], 14.7 µM; in [6], 27.7 µM. Further, the TGI was 13.3 µM in [7], 3.22 µM in assay [8], 4.33 µM in assay [9] and 4.13 µM in assay [10].

As for `COc1cccc2c(=O)c3c(sc12)c(NCCN(C)C)nc1ccccc13`, the GI50 in assay [1] is 1.83 µM; in assay [2], 1.2 µM; in assay [3], 1.47 µM; in [4] it was 1.64 µM; in assay [5], 1.68 µM; in assay [6], 1.59 µM. Further, the GI50 in [7] is 1.15 µM; in [8] it was 1 µM; in [9], 1.06 µM; in assay [10], 1.29 µM. In addition, the TGI in assay [1] amounted to 3.59 µM; in [2], 2.66 µM; in assay [3] it was 8.53 µM; in assay [4], 3.42 µM; in assay [5], 3.17 µM; in assay [6] it was 3.1 µM. Besides, the TGI in assay [7] was 2.58 µM; in assay [8], 2.22 µM; in assay [9] it was 2.41 µM; in assay [10], 2.65 µM.

On to `Oc1ccc(N=Nc2ccc(N=Nc3ccccc3)cc2)cc1`, for which the GI50 in [1] was 11.6 µM; in [2], 2.7 µM; in [3] it was 9.84 µM; in assay [4] it was 0.366 µM; in [5], 2.09 µM; in assay [6], 2.98 µM. For the same molecule, the GI50 was 3.95 µM in assay [7], 1.49 µM in assay [8], 0.855 µM in assay [9] and 14.3 µM in [10]. Moreover, the TGI in assay [1] came to 25.7 µM; in assay [2] it was 9.05 µM; in assay [3], 47.8 µM; in assay [4] it was 16.1 µM; in assay [5], 12.2 µM; in [6], 16.6 µM. For the same molecule, the TGI was 17.2 µM in assay [7], 5.59 µM in [8], 12.9 µM in assay [9] and 61.4 µM in assay [10].

Turning to `CCOC(=O)C#Cc1c(CC(=O)OCC)nnn1[C@H]1O[C@@H](CO)[C@@H]2OC(C)(C)O[C@@H]21`, the GI50 in assay [1] was 2 µM; in [2], 18.2 µM; in [3] it was 10.7 µM; in [4] it was 1.86 µM; in assay [5], 10.2 µM; in assay [6], 16.4 µM. The GI50 is 3.06 µM in [7], 1.97 µM in assay [8], 2.52 µM in [9] and 1.69 µM in [10]. Moreover, the TGI in assay [1] is 4.16 µM; in [2], 34.2 µM; in assay [3], 22.9 µM; in assay [4] it was 5.71 µM; in assay [5] it was 21.8 µM; in [6], 32.7 µM. Moreover, the TGI in [7] turned out to be 9.01 µM; in [8], 4.11 µM; in assay [9], 7.02 µM; in [10], 3.32 µM.

On to `CNc1nc(N(C)C)nc(N(C)C)n1`, for which the GI50 was > 100 µM and 1160 µM in assay [1]; > 100 µM and 970 µM in assay [2]; > 100 µM and 473 µM in [3]; > 100 µM and 2350 µM in [4]; > 100 µM and 1450 µM in assay [6]; > 100 µM and 2050 µM in [7]. Moreover, the GI50 in assay [8] was > 100 µM and 1900 µM; in assay [9], > 100 µM and 936 µM; in [10] it was > 100 µM and 975 µM. Moreover, the TGI in assay [1] is > 100 µM and 2110 µM; in assay [2], > 100 µM and 1890 µM; in assay [3], > 100 µM and 1980 µM; in assay [4], > 100 µM and 4200 µM; in assay [5] it was 5040 µM; in [6], > 100 µM and 3420 µM. Moreover, the TGI in assay [7] was > 100 µM and 3960 µM; in assay [8], > 100 µM and 3610 µM; in assay [9], > 100 µM and 2770 µM; in assay [10], > 100 µM and 3070 µM.

For the molecule `Clc1nc(Cl)c(Cc2ccccc2)c(Cl)n1`, the TGI in assay [1] is 63.2 µM; in assay [2], 20.4 µM; in assay [3], 22.5 µM; in [4], more than 100 µM; in assay [5] it was 28.7 µM; in assay [6], 66.3 µM. Further, the TGI is 32 µM in assay [7], 32 µM in assay [8], 85 µM in assay [9] and 11.1 µM in [10].

Consider `CN(C)CCNC(=O)c1cc2c3ccccc3[nH]c2c2ncccc12`, for which the GI50 is 10.7 µM in assay [1]; 11.1 µM in assay [2]; 5.44 µM in [3]; 10.2 µM in assay [4]; 11.5 µM in [5]; 12.8 µM in [6]. Also, the GI50 in assay [7] was 7.36 µM; in assay [8], 4.24 µM; in assay [9] it was 5.88 µM; in [10], 6.08 µM. For the same molecule, the TGI in assay [1] is 26.5 µM; in [2], 37.5 µM; in assay [3], 21.4 µM; in [4], 30 µM; in [5] it was 30.7 µM; in assay [6], 77.4 µM. Further, the TGI in assay [7] is 39.2 µM; in assay [8], 28 µM; in [9] it was 25 µM; in assay [10], 20.1 µM.

On to `O=C(N/N=C\c1ccc(N(CCCl)CCCl)cc1Cl)c1cccnc1`, for which the GI50 in assay [1] is 21.4 µM; in assay [2], 13.6 µM; in assay [3], 20.1 µM; in assay [4], 7.5 µM; in assay [5], 16.2 µM; in assay [6], 19.4 µM. In addition, the GI50 in assay [7] is 24.1 µM; in [8], 28.5 µM; in assay [9] it was 29 µM; in assay [10], 14.2 µM. The TGI in assay [1] is 64.2 µM; in assay [2] it was more than 78 µM; in assay [3], 73.7 µM; in [4], 36.5 µM; in [5] it was 59.6 µM; in assay [6] it was 64.3 µM. In addition, the TGI was more than 84.4 µM in [7], more than 100 µM in [8], more than 100 µM in assay [9] and 51.9 µM in [10].

The values above are taken from PubChem BioAssay (NCI).
